Measured values: ChEMBL document CHEMBL3301361, “Experimental in vitro DMPK and physicochemical data on a set of publicly disclosed compounds”

Assay: physchem
Conditions: octan-1-ol/water, pH 7.4
For `O=C(N[C@@H]1CN2CCC1CC2)c1ccc(-c2ccccc2)s1`, the logD was 1.77.
Compound `NC(=O)c1cccc(N[C@H]2C[C@H]3CC[C@@H](C2)N3Cc2ccccc2)c1` has a logD of 1.01.
`Cc1nc(-c2ccc(CN3CCC(n4c(=O)[nH]c5ccccc54)CC3)cc2)c(-c2ccccc2)[nH]c1=O` gave a logD of 3.8.
Compound `CCC1(C)CC(=O)NC1=O` (stereo not drawn) [ETHOSUXIMIDE] has a logD of 0.23.
`CCOC(=O)Nc1cccc([C@@H](c2ccc(C(=O)N3CCC3)cc2)N2CCN(Cc3cccnc3)CC2)c1` showed a logD of 3.02.
Compound `Nc1ccccc1[N+](=O)[O-]` [2-NITROANILINE] has a logD of -0.96.
Compound `COc1ccc(C=C2SC(=O)NC2=O)cc1OC` has a logD of 1.17.
Compound `S=C(NC1CCCCC1)N1CCC(c2cnc[nH]2)CC1` [THIOPERAMIDE] has a logD of 2.3.
Work on `O=C(N[C@H]1CN2CCC1CC2)c1ccc(Cl)cc1` [PNU-282987] yielded a logD of 0.6.
Compound `Cc1cc(O)nc(-n2nc(C)c(Oc3ccccc3O)c2C)n1` has a logD of 1.4.
Compound `Nc1ccc2nc(-c3ccc(O)cc3)sc2c1` has a logD of 3.1.

Same assay, conditions: octan-1-ol/water, pH 7.4, LogD7.4
With `COc1ccc(-c2c(F)ccc3c(N)c(C(=O)NC4CC4)nnc23)c(OC)n1` the logD was 3.37.
Work on `CC(C)C(NC(=O)Cn1c(-c2ccccc2)ncc(NC(=O)OCc2ccccc2)c1=O)C(=O)C(F)(F)F` (stereo not drawn) yielded a logD of 2.12.
Compound `COc1cc(C(=O)Nc2cc(NC(=O)c3cccc(N(C)C)c3)ccc2C)cc(OC)c1OC` has a logD of 2.54.
`COc1cc2c(Nc3c(Cl)ccc4c3OCO4)ncnc2cc1OCC1CCN(C)CC1` gave a logD of 1.83.
With `CC1(C(=O)NC2CCCCC2)CCC(=O)N1Cc1cccs1` (stereo not drawn) the logD was 2.15.
In the case of `Clc1ccccc1CN1CCc2sccc2C1` [TICLOPIDINE], the logD is reported as 3.46.
For `COc1cccc(OC)c1-c1ccc(C[C@H](NC(=O)c2c(Cl)cccc2Cl)C(=O)O)cc1`, the logD was -0.27.
With `CC(=O)N[C@@H]1CC2(CCN(Cc3ccc4[nH]c5ccccc5c4c3)CC2)c2ccccc21` the logD was 2.96.
Compound `Cn1cc(C#N)cc1-c1c2c(=O)n(CC#N)c(=O)n(CC3CC3)c2nn1Cc1ccnc2ccc(Cl)cc12` has a logD of 3.33.
Work on `O=C(COc1ccc(SCCCCCc2ccccc2)cc1)COc1ccc(C(=O)O)cc1` yielded a logD of 3.63.
With `CC[C@H](NC(=O)c1c([S+](C)[O-])c(-c2ccccc2)nc2c(F)cccc12)c1ccccc1` (stereo partly drawn) the logD was 2.84.
In the case of `C[C@@H](NC1=CC(=O)CCC1)c1ccc(Nc2ncc3cc(-c4ccncc4)ccc3n2)cc1`, the logD is reported as 3.17.
Compound `CN1CCc2c1nc1ccccc1c2NC(=O)Cc1ccccc1` has a logD of 2.8.
`COc1ncnc(NS(=O)(=O)c2ccc(N)cc2)c1OC` [SULFADOXINE] gave a logD of -0.73.
Compound `O=C(NCc1ccccn1)c1ccc(Oc2ccccc2)cc1` has a logD of 2.7.
`C=CCn1c(=O)c2c(-c3cc(C#N)cn3C)n(Cc3ccnc4ccc(Cl)cc34)nc2n(CC2CC2)c1=O` gave a logD of 4.27.
`COc1ccc(-c2nc3c(NCCCNC(=O)c4ccccc4)c(Br)cnc3[nH]2)cc1` gave a logD of 0.25.
For `COc1cc2nc(Nc3ccc([C@@H](C)NC(C)=O)cc3)ncc2cc1-c1ccncc1`, the logD was 3.11.
For `CC(C)C(=O)Nc1ccc2c(c1)C(=O)NC2=O`, the logD was 1.55.
For `O=C(COCc1ccccn1)N1CCN(c2ccc(Cl)cc2Cl)CC1`, the logD was 3.47.
In the case of `Cc1ccc(S(=O)(=O)NC(=O)N2CCC(N3CCC(Oc4ccc(Cl)cc4)CC3)CC2)cc1`, the logD is reported as 1.6.
With `O=S(=O)(Nc1nccs1)c1cc(Cl)ccc1Cl` the logD was 1.14.
In the case of `CCN(c1ccccc1)c1cc(NC)[n+](C)c(C)n1`, the logD is reported as -0.91.
In the case of `O=c1[nH]c2c(O)ccc([C@@H](O)CNCCc3ccc(CNCCc4ccccc4)cc3)c2s1`, the logD is reported as 1.11.
`O=C(CC12CC3CC(CC(C3)C1)C2)Nc1cccc2ncccc12` gave a logD of 3.83.
`Cc1ncc(-c2nc(Nc3ccc(C(=O)N4CC[C@@H](N(C)C)C4)cc3)ncc2F)n1C(C)C` showed a logD of 2.36.
`COc1cc(-c2nnc(S)n2-c2cccc(C(F)(F)F)c2)cc(OC)c1OC` showed a logD of 2.27.
For `CCOC(=O)[C@H](Cc1ccc([N+](=O)[O-])cc1)NC(=O)c1ccccc1`, the logD was 2.79.
Compound `Nc1nc(N)c(-c2ccc(NC(=O)C3CC3)cc2)c(COCc2ccccc2)n1` has a logD of 2.46.
Compound `O=C(Nc1ccccn1)c1ccccc1` has a logD of 2.2.
In the case of `CCC(c1nc2ccsc2c(=O)n1Cc1ccccc1)N(CCCN)C(=O)c1ccc(C(C)C)cc1` (stereo not drawn), the logD is reported as 2.72.
`Fc1cc2[nH]cnc2cc1Cl` gave a logD of 2.35.
Work on `O=S(=O)(NCC(c1ccccc1)N1CCCCCC1)c1ccc(Br)cc1` (stereo not drawn) yielded a logD of 3.21.
`C[C@H](CO)Nc1nc(SCc2cccc(F)c2F)nc2nccnc12` gave a logD of 3.15.
`CS(=O)(=O)c1ccccc1C(=O)NCC(O)CNC1CCN(Cc2ccc(Cl)c(Cl)c2)CC1` (stereo not drawn) showed a logD of 1.21.
With `CCCc1c(OCc2ccc(-c3nn[nH]n3)cc2OC)ccc(C(C)=O)c1O` the logD was 2.8.
For `Cc1cc(-c2ccc(N3C[C@H](Cn4ccnn4)OC3=O)cc2F)on1`, the logD was 1.99.
`Fc1ccc(-n2cc(C3CCNCC3)c3cc(Cl)ccc32)cc1` gave a logD of 2.4.
With `COc1ccc(-c2cc(=O)[nH]c(N)n2)cc1` the logD was 1.52.
`CCS(=O)(=O)c1ccc(Oc2c(C)n(CC(=O)O)c3ccc(C(F)(F)F)cc23)cc1` gave a logD of 0.29.
With `CCCCCSc1nc2nc(N)sc2c(=O)[nH]1` the logD was 2.86.
`CC[C@H](NC(=O)c1c(CC[S+](C)[O-])c(-c2ccccc2)nc2ccccc12)c1ccccc1` (stereo partly drawn) gave a logD of 3.15.
For `Cc1cnc2nc(SCc3cccc(F)c3F)nc(N[C@H](C)CO)c2n1`, the logD was 3.5.
`CN(C)C(=O)C1(N2CCCCC2=O)CCN(CC[C@H](CN(C)C(=O)c2cc(C#N)cc3ccccc23)c2ccc(Cl)c(Cl)c2)CC1` gave a logD of 2.52.
With `CN(C)CC1CCn2c(c(C3=C(c4cn(C)c5ccccc45)C(=O)NC3=O)c3ccccc32)C1` (stereo not drawn) the logD was 2.88.
For `CC(C)(C)NC(=O)[C@@H]1CN(Cc2cccnc2)CCN1C[C@@H](O)C[C@@H](Cc1ccccc1)C(=O)N[C@H]1c2ccccc2C[C@H]1O`, the logD was 2.9.
For `Cc1c(CN(C)C(=O)/C=C/c2cnc3c(c2)CCC(=O)N3)oc2ccccc12` [AFN-1252], the logD was 2.36.
`CS(=O)(=O)NCCC(NC(=O)C1(N)CCN(c2ncnc3[nH]ccc23)CC1)c1ccc(Cl)cc1` (stereo not drawn) gave a logD of 2.2.
`CNC(=O)C1(N2CCCCC2=O)CCN(CC[C@H](CN(C)C(=O)c2c(OC)c(C#N)cc3ccccc23)c2ccc(Cl)c(Cl)c2)CC1` gave a logD of 2.78.
In the case of `Cc1noc(C)c1CCC1CCN(S(=O)(=O)CC2(N(O)C=O)CCC(F)(F)CC2)CC1`, the logD is reported as 2.1.
`CSc1ccc(OCc2ccccc2)c(/C=C/c2ccc(C(=O)O)cn2)c1` showed a logD of 2.45.
Work on `COc1cc(OC)cc(-c2cc3cnc(N)nc3nc2N)c1` yielded a logD of 2.14.
`COCCNS(=O)(=O)c1ccc(-c2cnc(N)c(C(=O)Nc3cccnc3)n2)cc1` gave a logD of 2.26.
Compound `COC(=O)c1nc2c(N[C@H](C)CO)nc(SCc3cccc(F)c3F)nc2[nH]c1=O` has a logD of 2.49.
In the case of `CC(C)(c1cc(N2CCOCC2)nc(-c2cccc3[nH]ccc23)n1)S(C)(=O)=O`, the logD is reported as 2.65.
With `C[C@@H](O)[C@@H](CO)Nc1nc(SCc2cccc(F)c2F)nc2nc(N)sc12` the logD was 2.83.
Work on `Oc1ccc(-c2nc3ccccc3nc2-c2ccc(O)cc2)cc1` yielded a logD of 2.7.
In the case of `CC(C)COCC(CN(Cc1ccccc1)c1ccccc1)N1CCCC1` (stereo not drawn) [BEPRIDIL], the logD is reported as 3.66.
For `COc1cc2nnc(C(N)=O)c(Nc3cc(C)ccc3F)c2cc1N1CCN(C)CC1`, the logD was 2.57.
`CNC(=O)c1ccc(-c2cc(C(=O)N[C@H]3CCCNC3)c(NC(N)=O)s2)cc1` gave a logD of 0.7.
Compound `O=C1O[C@@H](COc2ccon2)CN1c1ccc(C2=CCOCC2)c(F)c1` has a logD of 2.61.
With `CCOC(=O)c1ccc(OC(=O)CCCCCNC(=N)N)cc1` [GABEXATE] the logD was 2.41.
In the case of `CCCCN1Cc2c(nc3cc(-c4ccco4)nn3c2O)C1=O`, the logD is reported as 0.8.
For `Cc1cn([C@H]2CCCN(S(=O)(=O)c3ccc(O)c(Oc4cccc(C(F)(F)F)c4)c3)C2)c(=O)[nH]c1=O`, the logD was 2.27.
`CC(C)C(NC(=O)Cn1c(-c2ccccc2)ccc(NC(=O)Cc2ccc(C(=O)O)cc2)c1=O)C(=O)C(F)(F)F` (stereo not drawn) gave a logD of 0.35.
Compound `COC(=O)CCCCCCC(=O)Nc1ccc2c(c1)C(=O)C(=O)c1ccccc1-2` has a logD of 2.9.
For `CCNc1ccc(-c2ccccc2)n(CC(=O)NC(C(=O)C(F)(F)F)C(C)C)c1=O` (stereo not drawn), the logD was 2.37.
In the case of `C[S+]([O-])CCN1C(=O)C(NC(=O)c2cc3cc(Cl)sc3[nH]2)Cc2ccccc21` (stereo not drawn), the logD is reported as 3.17.
`CCCc1c(OCCCCSCC(=O)O)ccc(C(C)=O)c1O` gave a logD of 1.3.
Work on `CCCS(=O)(=O)N1CCCC(C(=O)N2CCC(Cc3ccccc3)CC2)C1` (stereo not drawn) yielded a logD of 3.44.
`COC(=O)N1CCN(c2ccnc(-n3ccnc3)n2)C(CC(=O)NCc2ccc3c(c2)OCO3)C1` (stereo not drawn) showed a logD of 1.88.
For `Cc1c(CCC(=O)O)c(=O)oc2cc(O)ccc12`, the logD was -0.7.
In the case of `COC(=O)c1c(O)cccc1OC/C=C/c1ccc(F)c(-c2cc(C(=O)O)no2)c1`, the logD is reported as 0.66.
Compound `CCCC(=O)Nc1ccc2c(c1)C(=O)C(=O)c1ccccc1-2` has a logD of 2.81.
Work on `Nc1ccc2[nH]c(Cc3ccc(Oc4ccccc4)cc3)nc2c1` yielded a logD of 3.8.
`COCCN1CCN(CC(=O)Nc2ccc(-c3cccn4c(=O)cc(N5CCOCC5)nc34)c3sc4ccccc4c23)CC1` gave a logD of 3.2.
`O=S(=O)(Cc1ccccc1)NCC(c1ccccc1)N1CCCCCC1` (stereo not drawn) gave a logD of 2.83.
Work on `Cc1noc(C)c1CCC1CCN(S(=O)(=O)CC2(N(O)C=O)CCOCC2)CC1` yielded a logD of 0.9.
For `O=C(O)c1ccccc1C(=O)N1CCC(N2CCC(Oc3ccc(Cl)c(Cl)c3)CC2)CC1`, the logD was 1.73.
`Cc1ccc(NC(=O)CCC2CCCCC2)cc1NC(=O)c1ccc(O)cc1` gave a logD of 4.13.
Work on `COCCC(=O)N[C@@H](C)c1ccc(Nc2ncc3cc(-c4ccncc4)ccc3n2)cc1` yielded a logD of 3.05.
`Cc1sc2ncnc(SCC(=O)N3CCN(C(=O)c4ccco4)CC3)c2c1C` gave a logD of 2.7.
Compound `O=C(N[C@@H](Cc1ccc(OCCNc2ccccn2)cc1)C(=O)O)c1c(Cl)cccc1Cl` has a logD of -0.48.
In the case of `Cc1ccc(Cl)c(Nc2ccccc2C(=O)O)c1Cl` [MECLOFENAMIC ACID], the logD is reported as 2.33.
Compound `O=C1C(=O)c2cc(-c3ccccc3F)ccc2-c2ccccc21` has a logD of 2.92.
Compound `N=C(N)SCc1ccc(Cl)c(Cl)c1` has a logD of 1.28.
With `COc1cc2ncc(C(N)=O)c(Nc3ccc(F)cc3F)c2cc1NCCN1CCOCC1` the logD was 2.68.
In the case of `Cc1ccc(OCC(=O)O)c(-n2nc3ccccc3n2)c1`, the logD is reported as -0.84.
Compound `CC(C)C(NC(=O)Cn1c(-c2cccc(C(=O)O)c2)ccc(NC(=O)OCc2ccccc2)c1=O)C(=O)C(F)(F)F` (stereo not drawn) has a logD of 1.2.
Work on `CCCN(CCC)C(=O)c1cccc(C(=O)N[C@@H](Cc2ccccc2)[C@H](O)CNCc2cccc(OC)c2)c1` yielded a logD of 2.7.
For `Clc1ccc2c(c1Nc1ncnc3cc(OCCN4CCCC4)cc(OC4CCOCC4)c13)OCO2`, the logD was 2.6.
Compound `CCN1CCN(C(=O)c2cc3cc(Cl)ccc3[nH]2)CC1` has a logD of 3.14.
